The text below walks through data of US11884708B2, “Stapled peptide inhibitors of nemo as potential anti-inflammatory and anti-cancer drugs” (INSTITUT PASTEUR, priority 2015, dated 2024).

One test deals with OCI-Ly3 DLBCL cells. Description: Protection from cell death induced by NEMO stapled inhibitor by apoptosis and necroptosis inhibitors. In kind it is cell-based, human. As to conditions: OCY-Ly3 pre-treated with inhibitor, then A-UBI-SAHND306-Q313.
Another test addresses T1, IKKα (Homo sapiens, UniProt O15111).
T1 sequence (O15111 1-745): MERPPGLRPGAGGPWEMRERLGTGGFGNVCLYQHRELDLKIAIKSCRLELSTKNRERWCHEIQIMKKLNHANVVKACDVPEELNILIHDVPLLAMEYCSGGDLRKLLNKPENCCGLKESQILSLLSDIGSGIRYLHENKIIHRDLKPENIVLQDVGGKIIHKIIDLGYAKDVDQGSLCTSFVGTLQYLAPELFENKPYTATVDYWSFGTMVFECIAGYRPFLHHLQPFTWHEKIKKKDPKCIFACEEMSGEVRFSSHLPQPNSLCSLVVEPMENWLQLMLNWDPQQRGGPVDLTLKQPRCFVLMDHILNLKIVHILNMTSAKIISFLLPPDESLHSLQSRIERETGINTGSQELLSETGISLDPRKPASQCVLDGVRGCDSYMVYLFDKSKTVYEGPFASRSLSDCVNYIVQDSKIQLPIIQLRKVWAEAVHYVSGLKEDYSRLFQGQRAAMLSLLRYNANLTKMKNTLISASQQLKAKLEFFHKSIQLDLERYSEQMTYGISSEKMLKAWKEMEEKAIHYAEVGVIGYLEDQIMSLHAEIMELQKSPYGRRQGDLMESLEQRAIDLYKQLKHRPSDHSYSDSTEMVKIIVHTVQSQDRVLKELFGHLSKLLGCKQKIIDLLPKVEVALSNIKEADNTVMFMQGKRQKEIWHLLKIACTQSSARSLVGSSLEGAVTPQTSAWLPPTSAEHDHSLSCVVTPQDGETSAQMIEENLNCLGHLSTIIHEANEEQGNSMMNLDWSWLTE
As to conditions: reported; cited from earlier work.

For test [1], the system named is OCI-Ly3 (ABC-DLBCL, MALT1 dependent). Briefly: Cell death assay (CellTiter-Blue resazurin). In kind it is cell-based, human. As for the experimental part:
(§1) The CellTiter-Blue® Cell Viability kit assay purchased from Promega was used to assess the cell death induced by NEMO stapled peptides in ABC- and GCB-DLBCL cell lines. […] Cells were considered 100% death when the fluorescence intensity value was the same as the one with the medium alone or with the cells treated with the cycloheximide protein synthesis inhibitor at 25 μM (Sigma Aldrich).
(§2) For each time point measurement 100 μl of cell samples were withdrawn at different incubation times (7 h, 24 h and 48 h) and subjected to resazurin assay for one hour at 37° C. in the CO2 incubator by adding and mixing for 10 sec 20 μl of resazurin. Fluorescence measurements were performed with a TECAN infinite F500 instrument at 560 nm excitation wavelength and 590 nm emission wavelength. Viability of cells at time 0 was determined just before adding compound and all experiments were performed in duplicate.
(§3) The percentage of cell death was calculated according to the following formula: (1−((RFUobs−blank)/(RFU100% viability−blank))*100), where RFUobs corresponds to the cells viability observed in the presence of compound, RFU100% viability, the initial cells viability and blank the background fluorescence measured using the medium alone.
(§4) The EC50 value was calculated by plotting the percentage of cell death as function of the compound concentration and fitting the experimental curve with the following formula: (A*P0)/(EC50+P0), where A is the amplitude of fluorescence, P0 is the peptide concentration.
(§5) To compare the inhibition efficiency of BA-UBI-SAHND306-Q313 with IKK inhibitors (MLN120B, MedChem Express) or IKKα/β inhibitor (TPCA1, R&D systems), 25,000 DLBCL cells (OCI-Ly3) were incubated for 7 h with an increasing concentration of IKK inhibitors ranging from 0 to 50 μM, and the amount of cell death was then determined using CellTiter-Blue® Cell Viability kit assay. For the MI-2 MALT1 inhibitor (Fontan et al., 2012, Cancer cell 22, 812-824), similar experiments were carried out in MALT dependent (OCI-Ly3) and independent (HLY1) DLBCL cells using a 0-25 μM range.

Another test deals with 70Z3-C3 cells. Briefly: Cellular uptake of BODIPY-labeled peptides by FACS. In kind it is cell-based. As to conditions: 2 h incubation, flow cytometry. On the technique in general: In flow cytometry, cells or beads pass a laser one at a time.
The subject of test [2] is HLY1 (ABC-DLBCL, MALT1 independent). Description: Cell death assay (CellTiter-Blue resazurin). In kind it is cell-based, human. How it is done: as §1, §2, §3, §4, §5
A general note: Alamar Blue is a resazurin reagent that responds to reducing activity.

Another test relates to OCI-Ly7 (GCB-DLBCL). Description: Cell death assay (CellTiter-Blue resazurin). As to conditions: OCY-Ly7, no constitutive NF-κB activation. In kind it is cell-based, human. As for the experimental part: as §1, §2
The percentage of cell death was calculated according to the following formula: (1−((RFUobs−blank)/(RFU100% viability−blank))*100), where RFUobs corresponds to the cells viability observed in the presence of compound, RFU100% viability, the initial cells viability and blank the background fluorescence measured using the medium alone. […]

The structures appear in SMILES notation. Where a SMILES comes first, the peptide text is derived from it. Bridges are numbered along the chain shown (N, C = ends). [ ]: non-standard residue; d: D form. The star is where a group is joined. Succinimide(1-Et,3-yl) = CCN1C(=O)CC(*)C1=O; R8 = C=CCCCCCC[C@@](C)(N)C(=O)O; S5 = C=CCCC[C@](C)(N)C(=O)O; Cbz = O=C(OCc1ccccc1)*; CH2F = FC*

Description for OCI-Ly3 DLBCL cells: Ferrostatin-1, an inhibitor of ferroptosis (Sigma Aldrich) was used at 25 μM, the mixture of pepstatin-A and E64D (Sigma Aldrich), inhibitors of lysosomal cathepin D and cathepsin B, respectively, at 25 μM each and Cyclosporin A (Sigma Aldrich), a CypD inhibitor, at 25 μM. In all experiments, the effect of different DMSO concentration on cell viability was measured and taken into account, and fluorescence background was measured using cell free medium containing inhibitors.

On to `CN1C(=O)C(Cc2c[nH]c3ccccc23)NC1=S` (stereo not shown) [Nec1, necrostatin-1], for which the “protection to cell death induced by NEMO stapled inhibitor, in words” value with OCI-Ly3 DLBCL cells is “totally prevent”.
In the case of `COC(=O)C[C@H](NC(=O)[C@H](C)NC(=O)[C@@H](NC(=O)OCc1ccccc1)C(C)C)C(=O)CF` [Z-VAD-fmk] (Cbz-Val-Ala-Asp(OMe)-CH2F), the “protection to cell death induced by NEMO stapled inhibitor, in words” value in the test with OCI-Ly3 DLBCL cells is listed as “did not provide any protection”.
As to `NC(=O)Nc1sc(-c2ccc(F)cc2)cc1C(N)=O` [TPCA-1], the IC50 (usually the concentration that gives 50% inhibition) at IKKα is 0.4 µM. Further, the cell death entry in test [1] (OCI-Ly3, 7 h) is “no significant additional effect”.
With `COc1nccnc1NS(=O)(=O)c1ccc(NC(=O)/C=C/c2ccc([N+](=O)[O-])s2)cc1` [NSA, necrosulfonamide], the “protection to cell death induced by NEMO stapled inhibitor, in words” value in the test with OCI-Ly3 DLBCL cells is “significantly rescued”.
The same measure, in the same setting: next, `CC(C)S(=O)(=O)c1ccc2nccc(Nc3ccc4scnc4c3)c2c1` [GSK872]: “significantly rescued”.
As for `CC[C@H](C)[C@H](NC(=O)[C@H](CCCCN)NC(=O)[C@@H](NC(=O)[C@H](CCC(N)=O)NC(=O)[C@H](CCCNC(=N)N)NC(=O)[C@H](CSC1CC(=O)N(CC)C1=O)NC(C)=O)[C@@H](C)CC)C(=O)N[C@@H](Cc1c[nH]c2ccccc12)C(=O)N[C@@H](Cc1ccccc1)C(=O)N[C@@H](CCC(N)=O)C(=O)N[C@@H](CC(N)=O)C(=O)N[C@@H](CCCNC(=N)N)C(=O)N[C@@H](CCCNC(=N)N)C(=O)N[C@@H](CCSC)C(=O)N[C@@H](CCCCN)C(=O)N[C@@H](Cc1c[nH]c2ccccc12)C(=O)N[C@@H](CCCCN)C(=O)N[C@@H](CCCCN)C(=O)N[C@@H](CC(C)C)C(=O)N[C@@H](CCCCN)C(=O)N[C@@H](C)C(=O)N[C@@H](CCC(N)=O)C(=O)N[C@@H](C)C(=O)N[C@]1(C)CCCCCCC=CCCC[C@@](C)(C(=O)N[C@@H](C)C(=O)N[C@@H](CCC(=O)O)C(=O)N[C@@H](CCCNC(=N)N)C(=O)N[C@@H](Cc2c[nH]cn2)C(=O)N[C@@H](C)C(=O)N[C@@H](CCCNC(=N)N)C(=O)N[C@@H](CCC(=O)O)C(=O)N[C@@H](CCCCN)C(N)=O)NC(=O)[C@H](Cc2ccccc2)NC(=O)[C@H](CCCNC(=N)N)NC(=O)[C@H](C)NC(=O)[C@H](CCCCN)NC(=O)[C@H](Cc2ccc(O)cc2)NC(=O)[C@H]([C@@H](C)CC)NC1=O` (stereo partly shown) [A-UBI-SAHN D306-Q313] (Ac-C(Succinimide(1-Et,3-yl))RQIKIWFQNRRMKWKKLKAQA[R8]IYKARF[S5]AERHAREK-NH2; staple 23-30), the “intracellular delivery at 4° C. lower than at 37° C.” value with 70Z3-C3 cells was 58%. For the same compound, the “more potent than ML120B” value in test [2] (HLY1) amounted to 70 ×. Also, the cell death in test [2] (HLY1, 7 h) was 100%. Further, the “times more potent than ML120B IKKβ inhibitor” value in test [1] (OCI-Ly3) is listed as “about 50 times”. Further, in test [1] (OCI-Ly3, 7 h), the EC50 (as a rule, the concentration needed to bring the measured effect to its halfway point) amounted to 2.6 ± 0.5 µM and the cell death was 100%. The “cell death, in words” value with OCI-Ly7 (GCB-DLBCL) is “no cell death”.
